“Also recorded” adds a separate entry of the source. Ends that are not written are not given here.
Key:
[1] = test system: IDE; settings: statement without data or reference; cited from earlier work
[2] = test system: IDE, His-Tag, rat, recombinant; experiment: Proteolysis by insulin-degrading enzyme (IDE) in vitro, ESI-MS; assay type: in vitro ADME; settings: 37 °C; for stability without IDE: no IDE
Description: Other peaks assigned to the same fragments with the addition of Na^+ and K^+ are not labelled for simplicity.
IDE, His-Tag, rat, recombinant, from Spodoptera frugiperda, was purchased from Calbiochem (Milan, Italy), and its activity was verified by carrying out enzymatic digestion of insulin solutions according to the experimental procedure previously reported. Methanol (MeOH), formic acid (FA), Tris–HCl buffer, phosphate buffered saline (PBS) buffer and all chemicals used were purchased from Sigma–Aldrich. ZIPTIP C18 was purchased from Millipore (Milan, Italy). IDE enzymatic assays were carried out by incubating the enzyme solution (0.4 μM) at 37 °C with the peptide solution at the indicated concentration. After purification with ZIPTIP C18, 3 μL of the resulting solution were mixed with 50 μL of water and 50 μL of MeOH and injected into the mass spectrometer at 5 μL/min. ESI-MS experiments were performed by using a Finnigan LCQ DECA XP PLUS ion trap spectrometer operating in the positive ion mode and equipped with an orthogonal ESI source (Thermo Electron Corporation, Madison, WI, USA). Sample solutions were injected into the ion source using nitrogen as the drying gas. The mass spectrometer operated with a capillary voltage of 46 V and capillary a temperature of 250 °C, while the spray voltage was 4.3 kV. MS/MS data were interpreted by using the “Molecular Weight Calculator” software by Matthew Monroe freely available on the web.

[3] = NPNA metabolism by enzyme fractions separated from rat brain cortex homogenate, ESI-MS; assay type: in vitro ADME, male Wistar rats; settings: for peptide fragment (sequence) formed: 120 min
Protocol: Brain cortices were rapidly removed from the male Wistar rats (150–200 g) and frozen immediately on dry ice. Tissues were kept at −80 °C until assayed. Brain was homogenized in an ice-cold 20 mM Tris–HCl buffer, pH 7.5, and diluted 1:6. The obtained homogenate was centrifuged twice at 14,000× g for 10 min at 4 °C.
Enzymes present in the rat brain homogenate were separated on the ion-exchange column Econo-Pac High Q (resin volume: 5 mL; Bio-Rad, Berkeley, CA, USA). Gradient separation was performed by the HPLC system Prominence LC-20 AD with a Photodiode Array Detector SPD-M20A (Shimadzu, Tokyo, Japan). The sample volume loaded on the column was 1 mL. The mobile phase consisted of 20 mM Tris–HCl buffer, pH 7.5, and a gradient of NaCl from 0 to 500 mM in 60 min was used. The total flow rate was 1 mL/min. One-point-five-milliliter fractions were collected during the separation and stored in −80 °C prior to further experiments.
Enzyme assays were performed in 0.5-mL Eppendorf tubes. Each homogenized brain fraction was diluted 1:5 with 20 mM Tris–HCl buffer, pH 7.5, and the reaction was initiated by the addition of 5 μg of NPNA and continued by mixing at 37 °C for 120 min (or for 300 min for preparing time course metabolic process). Five-microliter aliquots were taken from the incubation mixture, acidified by 30% MeOH with 0.1% FA and analyzed by ESI-MS (Bruker Esquire 3000) equipped with an autosampler (Famos, Thermo Scientific, earlier LC-Packings, Bremen, Germany). MS/MS analysis was performed to confirm the sequence of the released fragments. Quantitation of the enzyme activity was performed by integration of the peak area of formed products on the mass chromatogram. The samples were incubated with and without amastatin, an aminopeptidase inhibitor.

[4] = molecular target: T1, IDE (Rattus norvegicus, UniProt P35559); experiment: Surface Plasmon Resonance (SPR) OneStep binding to immobilized IDE; settings: comparison among the peptides tested
T1 construct: His-Tag; purchased Calbiochem (Milan, Italy); host or cells: Spodoptera frugiperda
T1 sequence (P35559 1-1019): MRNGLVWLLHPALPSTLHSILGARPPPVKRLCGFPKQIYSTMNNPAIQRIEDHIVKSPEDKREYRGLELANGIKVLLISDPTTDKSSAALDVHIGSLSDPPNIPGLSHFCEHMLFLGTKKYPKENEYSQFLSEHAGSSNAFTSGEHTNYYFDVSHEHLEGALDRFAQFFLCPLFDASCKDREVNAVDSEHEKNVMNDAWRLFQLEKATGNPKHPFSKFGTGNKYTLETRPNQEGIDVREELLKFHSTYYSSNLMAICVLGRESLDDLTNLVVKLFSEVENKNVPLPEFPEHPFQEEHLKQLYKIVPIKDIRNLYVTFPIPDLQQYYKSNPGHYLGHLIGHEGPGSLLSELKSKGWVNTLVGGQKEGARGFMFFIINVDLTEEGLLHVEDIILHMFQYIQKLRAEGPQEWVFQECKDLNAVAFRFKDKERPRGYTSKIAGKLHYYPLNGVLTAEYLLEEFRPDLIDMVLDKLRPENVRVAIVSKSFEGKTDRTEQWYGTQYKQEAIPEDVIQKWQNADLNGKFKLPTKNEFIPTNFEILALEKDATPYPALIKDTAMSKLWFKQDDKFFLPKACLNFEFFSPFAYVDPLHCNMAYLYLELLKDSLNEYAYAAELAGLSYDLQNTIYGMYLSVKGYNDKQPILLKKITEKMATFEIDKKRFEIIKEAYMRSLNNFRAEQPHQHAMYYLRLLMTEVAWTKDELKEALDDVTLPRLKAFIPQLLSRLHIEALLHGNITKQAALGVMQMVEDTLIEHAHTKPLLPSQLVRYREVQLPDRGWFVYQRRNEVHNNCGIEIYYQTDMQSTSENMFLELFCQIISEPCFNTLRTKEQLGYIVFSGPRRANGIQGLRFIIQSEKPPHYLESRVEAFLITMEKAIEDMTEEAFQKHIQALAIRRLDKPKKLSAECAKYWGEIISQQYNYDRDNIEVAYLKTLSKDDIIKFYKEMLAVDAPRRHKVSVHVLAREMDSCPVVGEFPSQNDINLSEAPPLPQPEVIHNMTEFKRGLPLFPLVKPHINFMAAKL

[5] = NPPW 1–25 degradation in rat brain homogenate, with and without amastatin, ESI-MS; assay type: in vitro ADME; settings: NPPW 1–25, rat brain homogenate
Protocol: We then tested the degradation of NPPW 1–25 peptide after incubation with rat brain homogenate, with and without the addition of amastatin. The latter was added to exclude the activity of aminopeptidases that are abundant in CNS. Such activity is responsible, among others, for the inactivation of opioid peptides, by truncation of the N-terminal Tyr, thus preventing binding to opioid receptors. […] In Table 2, the assignment of the peptide fragments detected is reported, while in Figure 4, a quantitative detection of their amounts at different incubation times is also shown. […] A further proof of this thesis could be obtained by applying selective IDE inhibitors that could become more easily available in the near future.
Brain cortices were rapidly removed from the male Wistar rats (150–200 g) and frozen immediately on dry ice. Tissues were kept at −80 °C until assayed. Brain was homogenized in an ice-cold 20 mM Tris–HCl buffer, pH 7.5, and diluted 1:6. […]
Enzyme assays were performed in 0.5-mL Eppendorf tubes. […] Five-microliter aliquots were taken from the incubation mixture, acidified by 30% MeOH with 0.1% FA and analyzed by ESI-MS (Bruker Esquire 3000) equipped with an autosampler (Famos, Thermo Scientific, earlier LC-Packings, Bremen, Germany). […] Quantitation of the enzyme activity was performed by integration of the peak area of formed products on the mass chromatogram. […]

[6] = molecular target: T2, Insulin-degrading enzyme (IDE), His-Tag, rat, recombinant (rat, UniProt P35559 1-1019); experiment: SPR; SensiQ Pioneer, OneStep approach; IDE immobilised by amine coupling on a COOH5 chip; peptides in solution (initial concentrations NPSA 74 uM, NPNA 74 uM, NPPW 150 uM); 0.01 M HEPES, 0.15 M NaCl, pH 7.4; fitted with Qdat, one binding site model for NPNA, two binding site model for NPSA and NPPW; settings: both partners purified
T2 construct: Insulin-degrading enzyme, rat, recombinant with His-Tag; Bought protein; immobilised by amine coupling for SPR; source: bought: Calbiochem (recombinant, from Spodoptera frugiperda)
T2 sequence (looked up): T1 sequence (P35559 1-1019)

## CC(C)C[C@@H](N)[C@H](O)C(=O)N[C@H](C(=O)N[C@H](C(=O)N[C@@H](CC(=O)O)C(=O)O)C(C)C)C(C)C [amastatin, reference compound]
[1]
  inhibition of IDE: not inhibited by amastatin

## NAWGPWSKEQLSPQA [NPNA, NAWGPWSKEQLSPQA]
[2]; NPNA incubated with IDE, up to 24 h, ESI-MS
  degradation by IDE: not cleaved by IDE; also recorded: IDE is not able to degrade NPNA; also recorded: not degraded by IDE; also recorded: does not produce any NPNA fragments at all incubation times investigated
[3]; Fraction 23, 37 °C, pH 7.5
  time of highest amount of main product 1–11: 4 h
[3]; Fraction 23 from Econo-Pac High Q, 5 μg NPNA, 20 mM Tris–HCl pH 7.5, 37 °C, ESI-MS
  peptide fragment (sequence) formed: SPQA
[3]; Fraction 26, 37 °C, pH 7.5
  main product, time course: SKEQL
[3]; Fraction 26 from Econo-Pac High Q, 5 μg NPNA, 20 mM Tris–HCl pH 7.5, 37 °C, ESI-MS
  peptide fragment (sequence) formed: NAW and GPW and SKEQL and SPQA
[3]; rat brain cortex fractions, 20 mM Tris–HCl pH 7.5, 37 °C, ESI-MS
  cleavage position by brain cortex proteases: mainly at the carboxyl side of the tryptophan and leucine; also recorded: mainly at the carboxyl side of tryptophan and leucine
[3]; time course, rat brain cortex fractions, 5 μg NPNA, 20 mM Tris–HCl pH 7.5, 37 °C, ESI-MS
  time of highest product intensity: 4 h

## PQRFGRNAWGPWSKEQLSPQAREFW [NPPW 1–25]
[4]
  relative KD for both binding sites: lowest KD values for both binding sites
[2]; 50 μM NPPW 1–25, 8 nM IDE, PBS, 8 h, ESI-MS
  cleavage sites by IDE: Gly5–Arg6, Ala8–Trp9, Gly10–Pro11 and Gln20–Ala21
[2]; 50 μM NPPW 1–25, 8 nM IDE, PBS, 8 h, ESI-MS, MS/MS
  fragments produced by IDE: WGPWSKEQLSPQ; also recorded: PQRFGRNAWGPWSKEQLSPQ at high abundance
[2]; 50 μM NPPW 1–25, 8 nM IDE, PBS, ESI-MS
  major cleavage site by IDE: Gln20–Ala21
[2]; 50 μM NPPW 1–25, PBS, 8 h, ESI-MS
  stability without IDE: only the full-length peptide is detected
[2]; NPPW 1–25, more than 2 h, data not shown
  fragment generated only at longer incubation times with IDE: PWSKEQLSPQAREFW
[2]; NPPW 1–25 with IDE, ESI-MS
  most abundant fragment produced by IDE: PQRFGRNAWGPWSKEQLSPQ
[5]
  major cleavage site: Gln20–Ala21
  most abundant peptide fragment: NPPW 1–20

## SAWGSWSKEQLNPQA [NPSA, SAWGSWSKEQLNPQA]
[2]; 50 μM NPSA, 8 nM IDE, PBS, 2 h, ESI-MS
  main cleavage site by IDE: between Trp6 and Ser7
[2]; 50 μM NPSA, 8 nM IDE, PBS, 2 h, ESI-MS, confirmed by MS/MS
  fragments produced by IDE: SAWGSW; also recorded: SKEQLNPQA
[2]; 50 μM NPSA, 8 nM IDE, PBS, 2 h, ESI-MS, listed as NPSA 1–15
  main cleavage site by IDE: Trp6–Ser7
[2]; 50 μM NPSA, PBS, 2 h, ESI-MS
  stability without IDE: only the full-length peptide is detected
[2]; (IDE) = 1/6000 (NPSA), disappearance of NPSA molecular peak, 50 μM NPSA, PBS, ESI-MS
  time to complete degradation by IDE: two

B1: NPNA (NAWGPWSKEQLSPQA {1-15}) (peptide)
peptide: NAWGPWSKEQLSPQA
notes: NPNA, residues 85-99 of rat pro-NPFFA (neuropeptide FF precursor); also called NPNA 1-15; source: synthetic peptide (Fmoc solid phase synthesis, purified by HPLC)
[6]
  Kd: 3.98 mM

Reference: PMC4200852, “Metabolism of Cryptic Peptides Derived from Neuropeptide FF Precursors: The Involvement of Insulin-Degrading Enzyme” (International Journal of Molecular Sciences, 2014)
